Measurements taken from patent US20180048011A1, “HIGH pH ORGANIC FLOW BATTERY” (President and Fellows of Harvard College, priority 2015, published 2018).
Where “and” joins values, the source holds several entries; their conditions need not be identical. Identical values can stand only once. One block for each compound: values may come before it.

Assays:
Format in all cases: physicochemical
[1] = Three-electrode cyclic voltammetry of quinones in 1 M KOH (incl. Pourbaix diagram); details: for equilibrium cell potential vs. ferro/ferricyanide suggested by cyclic voltammograms: 1 M KOH, 100 mV/s, glassy carbon electrode; for equilibrium potential of couple with ferrocyanide compared with 2,6-DHAQ/ferrocyanide: CV at 100 mV/s on glassy carbon electrode
Method: FIG. 1. Pourbaix diagram of 2,6-DHAQ. […] FIGS. 2a-d. a. Cyclic voltammogram of 2 mM 2,6-DHAQ (left curve) and ferrocyanide (right curve) scanned at 100 mV/s; arrows indicate scan direction. Dotted line represents cyclic voltammogram of 1 M KOH background scanned at 100 mV/s. b and c. Cyclic voltammograms of 2,3,6,7-THAQ (left curve in b) and 1,5-DMAQ (left curve in c), respectively, plotted along ferrocyanide (right curve) scanned at 100 mV/s on glassy carbon electrode.
Electrochemical characterization. A glassy carbon electrode was used for three-electrode cyclic voltammetry tests, except in the electrochemical window tests where graphite foil was used to mimic the condition of porous carbon paper. Rotating-disk electrode (RDE) experiments of 2,6-DHAQ (1 mM) in 1 M KOH solution were performed using a BASi RDE-2 rotating-disk electrode system (FIG. 3a). All tests were carried out using a Gamry Reference 3000 potentiostat, with a Pt counter electrode and an Ag/AgCI reference electrode (equilibrated with 3M NaCI, 213 mV vs. standard hydrogen electrode. A Levich plot was constructed from the RDE data by plotting the mass-transport limited current vs. the square root of the rotation rate (FIG. 3b). The diffusion coefficient of 2,6-DHAQ was calculated for each of three runs from the slope of the line fit to the Levich equation (Bard, A. J. & Faulkner, L. R. Electrochemical Methods: Fundamentals and Applications. (Wiley, 2000)). The kinematic viscosity was taken to be 1.08×10^−6 m^2 s^-1 (Hitchcock, L. B. & Mcllhenny, J. S. Ind. Eng. Chem. 27, 461-466 (1935)). The resulting value of the diffusion coefficient is 4.8(2) x 10^-6 cm^2 s^-1.

[2] = Solubility measurement by UV-Vis absorbance at 413 nm; details: 1 M KOH solution, pH 14, aqueous buffer, thermodynamic from solid; room temperature, in 1 M KOH
Method: Solubility measurement. Room temperature solubility in 1 M KOH solution was measured by measuring the absorbance at 413 nm and comparing to an absorbance-vs.-concentration calibration curve determined by preparing known concentrations of 2,6-DHAQ. UV-Vis spectrophotometry measurements were performed using an Agilent Cary 60 spectrophotometer equipped with a Quantum
Northwest T2 temperature regulator. Appropriate aliquots of 2,6-DHAQ stock solution were added to 1 M KOH blank solution and their UV-Vis absorbance spectra measured. A saturated solution of 2,6-DHAQ in 1 M KOH was prepared by adding 2,6-DHAQ potassium salt into 1 M KOH solution (10 mL) until a thin layer of precipitate formed, the remaining solution was diluted by known proportions, and the absorbance of the resulting solution was compared to the calibration curve.

[3] = Rotating-disk electrode study / Levich plot; details: 1 mM in 1 M KOH, Levich equation, three runs
Method: FIGS. 3a-3d. a. Rotating disk electrode study of the reduction of a 1 mM solution of 2,6-DHAQ in 1 M KOH on a glassy carbon electrode at various rotation rates (curves from top to bottom in legend). b. Levich plot of 1 mM 2,6-DHAQ in 1 M KOH. Data are an average of the current at -1.187 V vs. SHE for each of three runs; error bars indicate the standard deviation. c. Cyclic voltammogram of 1 mM 2,6-DHAQ in 1 M KOH (solid line). Dashed lines represent simulated cyclic voltammograms of a two-electron reduction of varying electrochemical rate constant ko and a reduction potential Eo of -0.684 V vs. SHE. The simulations assumed a ═0.5. The scan rate in all cases was 25 mV s^-1. d. […]
Electrochemical characterization. […] All tests were carried out using a Gamry Reference 3000 potentiostat, with a Pt counter electrode and an Ag/AgCI reference electrode (equilibrated with 3M NaCI, 213 mV vs. standard hydrogen electrode. A Levich plot was constructed from the RDE data by plotting the mass-transport limited current vs. the square root of the rotation rate (FIG. 3b). The diffusion coefficient of 2,6-DHAQ was calculated for each of three runs from the slope of the line fit to the Levich equation (Bard, A. J. & Faulkner, L. R. Electrochemical Methods: Fundamentals and Applications. (Wiley, 2000)). The kinematic viscosity was taken to be 1.08×10^−6 m^2 s^-1 (Hitchcock, L. B. & Mcllhenny, J. S. Ind. […]

[4] = Cyclic voltammogram modeling (simulated fit to measured CV)
Method: FIGS. 3a-3d. a. Rotating disk electrode study of the reduction of a 1 mM solution of 2,6-DHAQ in 1 M KOH on a glassy carbon electrode at various rotation rates (curves from top to bottom in legend). b. Levich plot of 1 mM 2,6-DHAQ in 1 M KOH. Data are an average of the current at -1.187 V vs. SHE for each of three runs; error bars indicate the standard deviation. c. Cyclic voltammogram of 1 mM 2,6-DHAQ in 1 M KOH (solid line). Dashed lines represent simulated cyclic voltammograms of a two-electron reduction of varying electrochemical rate constant ko and a reduction potential Eo of -0.684 V vs. SHE. The simulations assumed a ═0.5. The scan rate in all cases was 25 mV s^-1. d. Cyclic voltammogram of 1 mM 2,6-DHAQ in 1 M KOH (solid line). Dashed lines represent the simulated components of two successive one-electron reductions with reduction potentials of -0.657 V vs. SHE and -0.717 V vs. SHE, respectively, as well as the simulated total current arising from such a reaction. Each simulated reduction has a rate constant ko ═7 x 10^-3 cm 5^-1. The simulations assumed a ═0.5.
Cyclic voltammogram modeling. Computation was performed using Mathematica 10.0.1.0 according to algorithms by Oldham and Myland (Oldham, K. B. & Myland, J. C. Electrochim. Acta 56, 10612-10625 (2011)). The diffusivity of 2,6-DHAQ and both the one-electron and two-electron reduction products were assumed to be 4.8 x 10^-6 cm^2 s^-1, based on our RDE studies. The temperature was 293 K. Time was discretized into 40 ms increments, and the current at each time was computed based on the sum of previous currents as described by Oldham (Oldham, K. B. & Myland, J. C. Electrochim. Acta 56, 10612-10625 (2011)).
To model the two-electron reduction process (FIG. 1), the Butler-Volmer equation with the number of electrons n ═2 was used in place of Oldham equation (4:5), and the right-hand-side of equation (8:3) was multiplied by 2 to account for a two-electron reduction (Bard, A. J. & Faulkner, L. R. Electrochemical Methods: Fundamentals and Applications. (Wiley, 2000); Oldham, K. B. & Myland, J. C. Electrochim. Acta 56, 10612-10625 (2011)). The reduction potential was assumed to be equal to the voltage equidistant from the two peaks on the measured cyclic voltammogram (-0.684 V vs. SHE) and the charge transfer coefficient a was assumed to be 0.5. The electrochemical rate constant ko was then varied from 10^-3 cm s^-1 to 10^-5 cm s^-1.
To model the two successive one-electron reductions (FIG. 3d), Oldham equations (12:13) and (12:14) were used (Oldham, K. B. & Myland, J. C. Electrochim. Acta 56, 10612-10625 (2011)). The charge transfer coefficients al and a2 were assumed to be equal to 0.5, and the electrochemical rate constants for the two reductions were assumed equal. The values of the single rate constant and the first and second reduction potentials were permitted to vary freely. A reasonable fit to the experimental data was observed when the reduction potential of the first reduction Ei ═-0.657 V vs. SHE, the reduction potential of the second reduction E2 ═-0.717 V vs. SHE, and the two electrochemical rate constants ko,i and ko,2 both equaled 7×10^−3 cm s^-1, a value very close to that observed in other anthraquinone systems (Huskinson, B. et al. Nature 505, 195-198 (2014)).

[5] = Crossover study: CV of ferro-ferricyanide posolyte after 100 charge-discharge cycles; details: for fraction of 2,6-DHAQ crossed over the membrane into the posolyte: Nafion membrane
Method: FIGS. 16a-16b. Test of electrolyte permeation through membrane. Full (a) and zoomed in (b) cyclic voltammograms of 0.4 M ferro-ferricyanide electrolyte after 100 charge-discharge cycles. Same posolyte to which was added 3.9 mM 2,6-DHAQ, and 7.6 mM 2,6-DHAQ.
Crossover study. The concentration of crossed-over 2,6-DHAQ into the ferro-ferricyanide posolyte solution was evaluated using CV. After 100 charge-discharge cycles, the ferro-ferricyanide posolyte solution (5 mL) was collected and analyzed by CV (scan at 100 mV/s. The correlation between the CV signal and 2,6-DHAQ concentration was established by titrating known amounts of 2,6-DHAQ (12 mg or […]) to the cycled posolyte followed by controlled dilution. The comparison indicates <10 mM 2,6-DHAQ had crossed over into the posolyte, which corresponds to <2% of the 2,6-DHAQ originally assembled into the negolyte.

[6] = Chemical and electrochemical stability by proton NMR; details: sensitivity level of 1%; after 30 days in 5 M KOH at 100° C. and after 100 charge-discharge cycles (FIGS. 15a-c)
Method: FIGS. 15a-15c. Chemical and electrochemical stability of 2,6-DHAQ. ^1H NMR (500 MHz, DMSO-d6) spectra. a. 2,6-DHAQ 6: 8.04 (d, 2H, J═8.3 Hz, 2 x ArCH), 7.47 (d, 2H, J═2.5 Hz, 2 x ArCH), 7.19 (dd, 2H, J═8.3, 2.5 Hz, 2 x ArCH). b. 2,6-DHAQ, after 30 days heating in 5 M KOH solution at 100° C. c. 2,6-DHAQ, after 100 charge-discharge cycles.
The cell was cycled at a constant current density of ±0.1 A cm^-2 for 100 cycles (FIG. 14a). […] A 0.1% loss in capacity per cycle was observed during cycling, which appears to be a continuous loss of electro-active species over the 100 cycles (FIG. 14b). We explored three possible loss mechanisms: chemical decomposition, electrolyte crossover through the membrane, and leakage from the pumping system. […] This observation places an upper limit on crossover of 0.8% of the DHAQ, implying a crossover current density of <2.5 μA cm^-2 (FIGS. 16a and 16b). […] A source of leakage was readily apparent but not quantifiable at the exit of the humidified nitrogen bubbling through the negolyte to prevent energy loss by permeation of atmospheric oxygen. Coloration could also be found on the gaskets, indicating a likely site of electrolyte leakage (FIGS. 17a and 17b).

[7] = Cyclic voltammetry of FMN and ferrocyanide; details: 2 mM, 100 mV/s, glassy carbon electrode
Method: FIG. 5. Cyclic voltammogram of 2 mM FMN (left curve) and ferrocyanide (right curve) scanned at 100 mV/s on glassy carbon electrode; arrows indicate scan direction.
Before and during the test, the electrolytes were purged with UHP nitrogen to remove and then keep out atmospheric oxygen. […] Galvanostatic cycling shown in […]

[8] = 1 mM in 1 M KOH, simulated fit, two successive one-electron reductions
[9] = after 100 charge-discharge cycles

equilibrium cell potential vs. ferro/ferricyanide suggested by cyclic voltammograms [1]: ~1.35 V
Compound: Cc1c(O)ccc2c1C(=O)c1ccc(O)c(C)c1C2=O [1,5-DMAQ, 1,5-dimethyl-2,6-dihydroxy-9,10-anthraquinone]
equilibrium potential of couple with ferrocyanide compared with 2,6-DHAQ/ferrocyanide [1]: higher equilibrium potential than 2,6-DHAQ/ferrocyanide

equilibrium cell potential vs. ferro/ferricyanide suggested by cyclic voltammograms [1]: ~1.35 V
Compound: O=C1c2cc(O)c(O)cc2C(=O)c2cc(O)c(O)cc21 [2,3,6,7-THAQ, 2,3,6,7-tetrahydroxy-9,10-anthraquinone]
equilibrium potential of couple with ferrocyanide compared with 2,6-DHAQ/ferrocyanide [1]: higher equilibrium potential than 2,6-DHAQ/ferrocyanide

solubility [2]: > 600 mM
equilibrium cell potential vs. ferro/ferricyanide suggested by cyclic voltammograms [1]: 1.2 V
diffusion coefficient [3]: 4.8(2) x 10^-6 cm^2 s^-1
reduction potential E0 (voltage equidistant from the two CV peaks) ([4]; 1 mM in 1 M KOH, two-electron reduction model): -0.684 V vs. SHE
reduction potential of the first one-electron reduction [4, 8]: -0.657 V vs. SHE
reduction potential of the second one-electron reduction [4, 8]: -0.717 V vs. SHE
separation of the potentials of the two one-electron reductions ([4]; pH 14): 0.06 V
concentration of 2,6-DHAQ crossed over into the posolyte [5, 9]: < 10000 µM
fraction of 2,6-DHAQ crossed over the membrane into the posolyte [5, 9]: < 1% and < 2%
fraction of 2,6-DHAQ crossed over the membrane into the posolyte ([5]; after 100 charge-discharge cycles, listed as DHAQ): ≤ 0.8%
crossover current density ([5]; implied by crossover upper limit): < 2.5 μA cm^-2
decomposition by proton NMR [6]: no decomposition product
Compound: O=C1c2ccc(O)cc2C(=O)c2ccc(O)cc21 [2,6-DHAQ, 2,6-dihydroxy-9,10-anthraquinone]
rate constant ko of each simulated reduction ([4]; FIG. 3d legend, simulated fit): 7 x 10^-3 cm 5^-1
electrochemical rate constant k0 (both reductions) ([4]; simulated fit, charge transfer coefficient 0.5): 0.007 cm/s

overall peak separation of cyclic voltammograms vs. ferrocyanide [7]: 1 V
Compound: Cc1cc2nc3c(=O)[nH]c(=O)nc-3n(C[C@@H](O)[C@@H](O)[C@@H](O)COP(=O)(O)O)c2cc1C [FMN, riboflavin 5′ phosphate]
